Assay results published in patent publication US7504421B2, “Substituted 2-thio-3,5-dicyano-4-aryl-6-aminopyridines and their use” (priority 1999, dated 2009).
Like-named read-outs stand apart in the source and are kept apart here.

How the values were obtained:
[1] = test system: Langendorff heart of the rat (coronary arteries); test: Langendorff heart of the rat: coronary perfusion pressure, left ventricular pressure, heart rate; conditions: isolated rat heart
Procedure: After opening the thoracic cage of anesthetized rats, the heart is removed quickly and introduced into a conventional Langendorff apparatus. The coronary arteries are perfused at a constant volume (10 ml/min), and the resulting perfusion pressure is recorded via an appropriate pressure sensor. In this arrangement, a decrease of the perfusion pressure corresponds to a relaxation of the coronary arteries. At the same time, the pressure which is developed by the heart during each contraction is measured via a balloon introduced into the left ventricle and a further pressure sensor. The frequency of the isolated beating heart is calculated from the number of contractions per time unit.
In this test arrangement, the following values were obtained for the coronary perfusion pressure (the stated percentage refers to the reduction of the coronary perfusion pressure in percent at the respective concentration):
At the stated concentrations, the substances tested had no effect on the pressure developed during the contraction in the left ventricle and no effect on the heart rate.

adenosine A1 receptor = biological target: T1, adenosine A1 receptor (Homo sapiens, UniProt P30542); test: Intracellular cAMP in CHO cells transfected with cDNA for the A1 receptor after prestimulation with forskolin; type: cell-based; conditions: for remaining activity at 10 µM / remaining activity at 1 µM / remaining activity at 0.1 µM: CHO cells with A1 receptor, based on control prestimulated with 1 μM forskolin for 15 min (18% without forskolin), read-out: Concentration of intracellular cAMP in percent; for remaining activity at 10 µM: 10^-5 M; for remaining activity at 1 µM: 10^-6 M; for remaining activity at 0.1 µM: 10^-7 M; for receptor selectivity: adenosine A1 receptor: conclusion from cAMP data on A1, A2a, A2b cells; for agonistic effect on cells with the A1 receptor (in words): summary of cAMP data
T1 sequence (P30542 1-326): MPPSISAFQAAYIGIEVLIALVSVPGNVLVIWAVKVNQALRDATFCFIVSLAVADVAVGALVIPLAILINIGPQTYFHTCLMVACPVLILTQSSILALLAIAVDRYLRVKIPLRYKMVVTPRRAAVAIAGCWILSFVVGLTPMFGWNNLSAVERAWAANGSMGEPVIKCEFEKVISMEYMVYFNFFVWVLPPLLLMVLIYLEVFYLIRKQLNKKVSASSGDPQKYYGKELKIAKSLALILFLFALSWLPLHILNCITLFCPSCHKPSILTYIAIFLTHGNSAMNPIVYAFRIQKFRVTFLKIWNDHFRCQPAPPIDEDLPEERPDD
Procedure: (§1) Cells of the permanent line CHO (Chinese Hamster Ovary) were stably transfected with cDNA for the adenosine receptor subtypes A1, A2a, A2b and A3. Binding of the substances to the A2a or A2b receptor subtypes was determined by measuring the intracellular cAMP concentration in these cells using a conventional radioimmunological assay (cAMP-RIA, IBL GmbH, Hamburg, Germany).
The adenosine receptors A1 and A3 are coupled to a Gi protein, i.e. stimulation of these receptors results in an inhibition of adenylate cyclase and thus a reduction of the intracellular cAMP level. To identify A1/A3 receptor agonists, the adenylate cyclase is stimulated using forskolin. However, additional stimulation of the A1/A3 receptors inhibits adenylate cyclase, so that it is possible to detect A1/A3 receptor agonists by a comparatively low concentration of cAMP in the cell.
In the following experiments, the intracellular cAMP concentration in CHO cells transfected with the cDNA for the A1 receptor was determined.

adenosine A2b receptor = biological target: T2, adenosine A2b receptor (Homo sapiens, UniProt P29275); test: Intracellular cAMP (cAMP-RIA) in CHO cells transfected with cDNA for the A2b receptor, agonist mode; type: cell-based; conditions: for activity at 10 µM / activity at 1 µM / activity at 0.1 µM / activity at 0.01 µM / activity at 0.001 µM: read-out: Concentration of intracellular cAMP in percent; for agonistic effect on cells which express the adenosine receptor A2b (in words): summary of cAMP data
T2 sequence (P29275 1-332): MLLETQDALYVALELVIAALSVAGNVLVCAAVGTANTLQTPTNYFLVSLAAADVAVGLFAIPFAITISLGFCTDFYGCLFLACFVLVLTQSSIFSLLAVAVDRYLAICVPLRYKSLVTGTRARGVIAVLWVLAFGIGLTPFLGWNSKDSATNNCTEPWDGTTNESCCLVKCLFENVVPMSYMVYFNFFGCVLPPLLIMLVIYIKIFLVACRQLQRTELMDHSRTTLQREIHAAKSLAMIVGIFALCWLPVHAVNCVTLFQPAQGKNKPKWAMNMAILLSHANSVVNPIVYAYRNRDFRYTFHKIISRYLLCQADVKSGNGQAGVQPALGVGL
Procedure: as §1
(§2) In the case of the action of the substances as agonists, binding of the substances is expressed in an increase of the intracellular cAMP concentration.
(§3) In the experiments below, the intracellular cAMP concentration in CHO cells which had been transfected with cDNA for the A2b receptor was determined. What is stated is the cAMP concentration in percent in all cells in a well of a microtiter plate, based on the control value obtained without any substances acting on the cells: […]

adenosine A2a receptor = adenosine A2a receptor (Homo sapiens, UniProt P29274); test: Intracellular cAMP (cAMP-RIA) in CHO cells transfected with cDNA for the A2a receptor, agonist mode; type: cell-based; conditions: for Concentration of intracellular cAMP in percent: CHO cells with A2a receptor, based on control without substance; for effect on cells with the A2a receptor (in words): summary of cAMP data
Chain of adenosine A2a receptor (P29274 whole entry): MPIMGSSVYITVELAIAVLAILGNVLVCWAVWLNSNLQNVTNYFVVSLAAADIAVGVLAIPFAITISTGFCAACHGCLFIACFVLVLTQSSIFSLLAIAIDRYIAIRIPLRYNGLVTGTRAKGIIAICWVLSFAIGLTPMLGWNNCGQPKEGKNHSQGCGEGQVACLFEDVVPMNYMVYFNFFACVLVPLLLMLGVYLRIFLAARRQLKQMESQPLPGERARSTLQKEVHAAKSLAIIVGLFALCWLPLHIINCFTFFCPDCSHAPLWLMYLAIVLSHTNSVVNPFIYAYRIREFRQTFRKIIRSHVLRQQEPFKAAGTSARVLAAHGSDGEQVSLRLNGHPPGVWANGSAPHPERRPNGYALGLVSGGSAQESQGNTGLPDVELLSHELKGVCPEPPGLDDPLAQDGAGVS
Procedure: as §1, §2
as §3, with “A2a” for “A2b”

[2] = CHO cells with A2b receptor, 10^-5 M, based on control without substance
[3] = CHO cells with A2b receptor, 10^-6 M, based on control without substance
[4] = CHO cells with A2b receptor, 10^-7 M, based on control without substance

Row | SMILES | remaining activity at 10 µM (adenosine A1 receptor) [%] | remaining activity at 1 µM (adenosine A1 receptor) [%] | remaining activity at 0.1 µM (adenosine A1 receptor) [%] | agonistic effect on cells with the A1 receptor (in words) (adenosine A1 receptor) | activity at 10 µM (adenosine A2b receptor; [2]) [%] | activity at 1 µM (adenosine A2b receptor; [3]) [%] | activity at 0.1 µM (adenosine A2b receptor; [4]) [%] | agonistic effect on cells which express the adenosine receptor A2b (in words) (adenosine A2b receptor) | Concentration of intracellular cAMP in percent (adenosine A2a receptor; 10^-5 M) [%] | Concentration of intracellular cAMP in percent (adenosine A2a receptor; 10^-6 M) [%] | Concentration of intracellular cAMP in percent (adenosine A2a receptor; 10^-7 M) [%] | effect on cells with the A2a receptor (in words) (adenosine A2a receptor) | Reduction of the coronary perfusion pressure in percent ([1]; concentration 10^-6 g/ml) | Reduction of the coronary perfusion pressure in percent ([1]; concentration 10^-7 g/ml) | further results
1 | N#Cc1c(N)nc(SCC(N)=O)c(C#N)c1-c1ccc(O)cc1 [A 1] | – | – | – | – | 900 | 947 | 837 | clear agonistic effect | 208 | 117 | 92 | virtually no effect | – | – | –
2 | N#Cc1c(N)nc(SCCO)c(C#N)c1-c1ccc(O)cc1 [Example 21, 2-Amino-6-[(2-hydroxyethyl)sulfanyl]-4-(4-hydroxyphenyl)-3,5-pyridinedicarbonitrile] | – | – | – | – | – | – | – | – | – | 117 | 143 | – | about 75% | about 40% | activity at 0.1 µM (adenosine A2b receptor; CHO): 253%; activity at 1 µM (adenosine A2b receptor; CHO): 432%; activity at 10 µM (adenosine A2b receptor; CHO): 384%
3 | N#Cc1c(N)nc(SCc2ncc[nH]2)c(C#N)c1-c1ccc(O)cc1 [A 379] | 35 | 34 | 34 | comparably weaker effect | – | – | – | clear agonistic effect | 291 | 235 | 218 | virtually no effect | about 63% | about 64% | activity at 0.001 µM (adenosine A2b receptor; CHO): 870%; activity at 0.01 µM (adenosine A2b receptor; CHO): 846%; activity at 0.1 µM (adenosine A2b receptor; CHO): 861%; activity at 1 µM (adenosine A2b receptor; CHO): 936%; receptor selectivity: adenosine A2b receptor (adenosine A2b receptor; conclusion from cAMP data on A1, A2a, A2b cells): selective adenosine A2b receptor agonist; Concentration of intracellular cAMP in percent (adenosine A2a receptor; 10^-8 M): 160%; Concentration of intracellular cAMP in percent (adenosine A2a receptor; 10^-9 M): 93%
4 | Cc1ccc(-c2c(C#N)c(N)nc(SCc3ccccc3)c2C#N)cc1 [A 189] | – | – | – | – | – | – | – | – | – | – | – | – | about 37% | no effect observed | –
5 | Cc1ccc(-c2c(C#N)c(N)nc(SCC(O)CO)c2C#N)cc1 (stereo not drawn) [A 198] | – | – | – | – | – | – | – | – | – | – | – | – | about 26% | no effect observed | –

More lines, main results first:

Row | remaining activity at 10 µM (adenosine A1 receptor) [%] | remaining activity at 1 µM (adenosine A1 receptor) [%] | remaining activity at 0.1 µM (adenosine A1 receptor) [%] | agonistic effect on cells with the A1 receptor (in words) (adenosine A1 receptor) | activity at 10 µM (adenosine A2b receptor; [2]) [%] | activity at 1 µM (adenosine A2b receptor; [3]) [%] | activity at 0.1 µM (adenosine A2b receptor; [4]) [%] | agonistic effect on cells which express the adenosine receptor A2b (in words) (adenosine A2b receptor) | Concentration of intracellular cAMP in percent (adenosine A2a receptor; 10^-5 M) [%] | Concentration of intracellular cAMP in percent (adenosine A2a receptor; 10^-6 M) [%] | Concentration of intracellular cAMP in percent (adenosine A2a receptor; 10^-7 M) [%] | effect on cells with the A2a receptor (in words) (adenosine A2a receptor) | SMILES | Reduction of the coronary perfusion pressure in percent ([1]; concentration 10^-6 g/ml) | Reduction of the coronary perfusion pressure in percent ([1]; concentration 10^-7 g/ml) | further results
6 | 22 | 24 | 18 | clear agonistic effect | 784 | 674 | 347 | considerably weaker effect | 317 | 200 | 117 | virtually no effect | N#Cc1c(N)nc(SCCO)c(C#N)c1-c1cccc(O)c1 [A 43] | about 68% | about 42% | receptor selectivity: adenosine A1 receptor (adenosine A1 receptor): selective adenosine A1 receptor agonists
7 | 21 | 23 | 28 | clear agonistic effect | 571 | 586 | 438 | considerably weaker effect | 212 | 146 | 107 | virtually no effect | N#Cc1c(N)nc(SCCO)c(C#N)c1-c1ccccc1 [A 104] | – | – | receptor selectivity: adenosine A1 receptor (adenosine A1 receptor): selective adenosine A1 receptor agonists; activity at 0.01 µM (adenosine A2b receptor; CHO cells with A2b receptor, 10^-8 M, based on control without substance): 178%; activity at 0.001 µM (adenosine A2b receptor; CHO cells with A2b receptor, 10^-9 M, based on control without substance): 100%; Concentration of intracellular cAMP in percent (adenosine A2a receptor; 10^-8 M): 107%; Concentration of intracellular cAMP in percent (adenosine A2a receptor; 10^-9 M): 104%
8 | – | – | – | – | 753 | 716 | 463 | – | 183 | 108 | 67 | – | CC(O)CSc1nc(N)c(C#N)c(-c2cccc(O)c2)c1C#N (stereo not drawn) [A 46] | – | – | –
